pIC50, pKi: −log10 of the molar value.
Assays:
CYP2D6 [1] = target: T1, CYP2D6 (Homo sapiens, UniProt P10635); assay: LC-MS/MS, bufuralol, Lineweaver-Burk/Dixon; format: biochemical
T1 construct: native enzyme in ultrapooled human liver microsomes

CYP2B6 [2] = target: T2, CYP2B6 (Homo sapiens, UniProt P20813); assay: LC-MS/MS, bupropion hydroxylation, Lineweaver-Burk/Dixon; format: biochemical
T2 construct: native enzyme in ultrapooled human liver microsomes
T2 sequence (P20813 1-491): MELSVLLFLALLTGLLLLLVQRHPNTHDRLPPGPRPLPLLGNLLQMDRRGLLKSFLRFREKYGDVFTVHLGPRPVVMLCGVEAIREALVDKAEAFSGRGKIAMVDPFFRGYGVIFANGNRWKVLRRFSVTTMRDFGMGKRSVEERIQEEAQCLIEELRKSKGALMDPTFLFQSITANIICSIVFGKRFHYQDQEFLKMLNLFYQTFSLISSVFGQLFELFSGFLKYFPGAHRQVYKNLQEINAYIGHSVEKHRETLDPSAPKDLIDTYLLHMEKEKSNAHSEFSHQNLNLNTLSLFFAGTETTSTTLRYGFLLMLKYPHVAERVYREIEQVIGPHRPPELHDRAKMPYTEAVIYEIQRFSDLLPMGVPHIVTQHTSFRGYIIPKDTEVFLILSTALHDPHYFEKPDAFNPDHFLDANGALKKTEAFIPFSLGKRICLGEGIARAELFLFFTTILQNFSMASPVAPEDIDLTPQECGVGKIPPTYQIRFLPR
Excerpt: LC-MS/MS, bupropion hydroxylation, Lineweaver-Burk/Dixon on CYP2B6

CYP2C9 [3] = target: T3, CYP2C9 (Homo sapiens, UniProt P11712); assay: LC-MS/MS, diclofenac (substrate cocktail); format: biochemical
T3 construct: native enzyme in ultrapooled human liver microsomes
T3 sequence (P11712 whole entry): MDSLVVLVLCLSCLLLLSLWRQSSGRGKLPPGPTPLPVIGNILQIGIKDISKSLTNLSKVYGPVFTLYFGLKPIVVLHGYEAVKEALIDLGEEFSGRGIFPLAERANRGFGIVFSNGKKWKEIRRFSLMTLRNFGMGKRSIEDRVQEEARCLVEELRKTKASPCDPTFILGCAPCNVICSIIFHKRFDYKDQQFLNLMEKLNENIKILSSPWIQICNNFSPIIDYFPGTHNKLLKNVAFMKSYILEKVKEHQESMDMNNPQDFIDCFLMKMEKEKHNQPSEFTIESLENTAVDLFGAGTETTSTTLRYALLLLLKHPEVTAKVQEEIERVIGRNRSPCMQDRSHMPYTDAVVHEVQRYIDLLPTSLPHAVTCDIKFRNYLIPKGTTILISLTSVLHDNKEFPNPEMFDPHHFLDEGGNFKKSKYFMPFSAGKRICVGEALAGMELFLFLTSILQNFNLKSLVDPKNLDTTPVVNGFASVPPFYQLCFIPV

CYP1A2 = target: T4, CYP1A2 (Homo sapiens, UniProt P05177); assay: LC-MS/MS, phenacetin O-de-ethylation (substrate cocktail); format: biochemical
T4 construct: native enzyme in ultrapooled human liver microsomes
T4 sequence (P05177 2-516): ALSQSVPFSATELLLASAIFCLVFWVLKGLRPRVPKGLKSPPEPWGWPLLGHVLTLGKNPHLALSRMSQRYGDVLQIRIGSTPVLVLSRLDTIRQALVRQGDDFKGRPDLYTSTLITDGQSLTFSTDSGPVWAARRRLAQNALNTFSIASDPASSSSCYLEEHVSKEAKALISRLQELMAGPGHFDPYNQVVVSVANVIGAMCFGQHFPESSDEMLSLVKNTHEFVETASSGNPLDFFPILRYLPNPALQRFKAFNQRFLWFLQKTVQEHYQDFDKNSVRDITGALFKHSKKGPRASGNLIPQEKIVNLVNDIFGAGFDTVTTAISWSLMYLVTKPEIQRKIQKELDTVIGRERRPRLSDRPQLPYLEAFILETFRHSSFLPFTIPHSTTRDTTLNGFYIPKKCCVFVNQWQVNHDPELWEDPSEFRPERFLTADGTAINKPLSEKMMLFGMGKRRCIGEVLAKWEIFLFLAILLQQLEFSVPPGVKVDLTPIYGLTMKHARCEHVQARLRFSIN
Excerpt: LC-MS/MS, phenacetin O-de-ethylation (substrate cocktail) on CYP1A2

CYP2C19 [4] = target: T5, CYP2C19 (Homo sapiens, UniProt P33261); assay: LC-MS/MS, [S]-mephenytoin (substrate cocktail); format: biochemical
T5 construct: native enzyme in ultrapooled human liver microsomes
T5 sequence (P33261 whole entry): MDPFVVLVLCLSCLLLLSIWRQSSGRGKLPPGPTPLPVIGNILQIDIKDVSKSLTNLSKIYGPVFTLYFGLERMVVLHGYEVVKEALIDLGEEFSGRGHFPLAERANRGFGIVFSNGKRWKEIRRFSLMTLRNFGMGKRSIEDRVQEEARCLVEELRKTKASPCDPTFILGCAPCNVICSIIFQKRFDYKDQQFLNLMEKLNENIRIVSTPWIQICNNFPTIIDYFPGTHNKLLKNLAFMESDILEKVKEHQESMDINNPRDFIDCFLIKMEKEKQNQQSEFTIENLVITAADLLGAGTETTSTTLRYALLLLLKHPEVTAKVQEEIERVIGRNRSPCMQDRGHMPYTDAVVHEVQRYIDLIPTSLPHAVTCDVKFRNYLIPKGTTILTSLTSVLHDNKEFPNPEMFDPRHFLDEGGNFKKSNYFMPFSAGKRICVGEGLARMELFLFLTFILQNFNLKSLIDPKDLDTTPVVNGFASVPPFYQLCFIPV

OATP1B1 [5] = target: T6, OATP1B1 (Homo sapiens, UniProt Q9Y6L6); assay: [3H]estrone-3-sulfate uptake in HEK293-OATP1B1 cells; format: cell-based
T6 construct: gene SLCO1B1; transiently overexpressed in HEK293 cells (Corning)
T6 sequence (Q9Y6L6 1-691): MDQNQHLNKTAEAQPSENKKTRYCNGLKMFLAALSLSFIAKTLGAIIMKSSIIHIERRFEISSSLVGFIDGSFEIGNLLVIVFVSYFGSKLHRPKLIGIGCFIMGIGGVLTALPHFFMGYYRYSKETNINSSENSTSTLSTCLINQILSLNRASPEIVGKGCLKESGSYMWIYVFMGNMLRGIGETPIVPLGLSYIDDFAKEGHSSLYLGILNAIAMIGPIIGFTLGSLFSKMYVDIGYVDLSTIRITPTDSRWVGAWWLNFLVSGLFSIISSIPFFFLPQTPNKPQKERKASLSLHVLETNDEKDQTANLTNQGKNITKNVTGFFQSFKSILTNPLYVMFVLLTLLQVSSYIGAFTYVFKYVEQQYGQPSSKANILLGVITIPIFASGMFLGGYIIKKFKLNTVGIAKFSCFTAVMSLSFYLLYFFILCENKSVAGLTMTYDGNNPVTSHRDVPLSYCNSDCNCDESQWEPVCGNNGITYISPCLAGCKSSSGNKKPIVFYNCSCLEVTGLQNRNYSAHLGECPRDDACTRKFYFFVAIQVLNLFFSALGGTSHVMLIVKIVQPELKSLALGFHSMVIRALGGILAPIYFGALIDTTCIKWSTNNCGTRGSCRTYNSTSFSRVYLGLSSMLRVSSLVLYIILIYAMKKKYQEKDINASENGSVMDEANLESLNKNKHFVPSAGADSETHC

CYP2C19 [6] = target: T5, CYP2C19; assay: LC-MS/MS, [S]-mephenytoin, Lineweaver-Burk/Dixon; format: biochemical
CYP2B6 [7] = target: T2, CYP2B6; assay: LC-MS/MS, bupropion hydroxylation; format: biochemical
Excerpt: LC-MS/MS, bupropion hydroxylation on CYP2B6

CYP2C8 [8] = target: T7, CYP2C8 (Homo sapiens, UniProt P10632); assay: LC-MS/MS, amodiaquine N-de-ethylation (substrate cocktail); format: biochemical
T7 construct: native enzyme in ultrapooled human liver microsomes
T7 sequence (P10632 1-490): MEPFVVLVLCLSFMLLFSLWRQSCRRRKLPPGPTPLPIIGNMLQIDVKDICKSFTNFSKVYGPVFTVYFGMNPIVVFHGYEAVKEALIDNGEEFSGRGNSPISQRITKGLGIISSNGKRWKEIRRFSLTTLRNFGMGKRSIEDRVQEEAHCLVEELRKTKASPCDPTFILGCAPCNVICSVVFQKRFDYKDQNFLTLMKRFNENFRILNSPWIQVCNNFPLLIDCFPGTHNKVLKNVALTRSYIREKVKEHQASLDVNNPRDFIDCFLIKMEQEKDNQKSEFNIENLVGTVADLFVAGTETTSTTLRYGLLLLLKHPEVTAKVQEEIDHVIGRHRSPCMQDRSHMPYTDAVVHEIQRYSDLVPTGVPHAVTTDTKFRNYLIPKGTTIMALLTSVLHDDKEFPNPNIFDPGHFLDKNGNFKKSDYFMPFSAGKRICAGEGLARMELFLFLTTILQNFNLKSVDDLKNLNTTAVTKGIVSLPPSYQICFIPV
Excerpt: LC-MS/MS, amodiaquine N-de-ethylation (substrate cocktail) on CYP2C8

OATP1B1 [9] = target: T6, OATP1B1; assay: [3H]estrone-3-sulfate uptake in HEK293-OATP1B1 cells, Lineweaver-Burk; format: cell-based
Excerpt: [3H]estrone-3-sulfate uptake in HEK293-OATP1B1 cells, Lineweaver-Burk on OATP1B1

CYP2C8 [10] = target: T7, CYP2C8; assay: LC-MS/MS, amodiaquine N-de-ethylation, Lineweaver-Burk/Dixon; format: biochemical
Excerpt: LC-MS/MS, amodiaquine N-de-ethylation, Lineweaver-Burk/Dixon on CYP2C8

CYP2C9 [11] = target: T3, CYP2C9; assay: LC-MS/MS, diclofenac, Lineweaver-Burk/Dixon; format: biochemical
CYP2D6 [12] = target: T1, CYP2D6; assay: LC-MS/MS, bufuralol (substrate cocktail); format: biochemical

T1 sequence (P10635 whole entry): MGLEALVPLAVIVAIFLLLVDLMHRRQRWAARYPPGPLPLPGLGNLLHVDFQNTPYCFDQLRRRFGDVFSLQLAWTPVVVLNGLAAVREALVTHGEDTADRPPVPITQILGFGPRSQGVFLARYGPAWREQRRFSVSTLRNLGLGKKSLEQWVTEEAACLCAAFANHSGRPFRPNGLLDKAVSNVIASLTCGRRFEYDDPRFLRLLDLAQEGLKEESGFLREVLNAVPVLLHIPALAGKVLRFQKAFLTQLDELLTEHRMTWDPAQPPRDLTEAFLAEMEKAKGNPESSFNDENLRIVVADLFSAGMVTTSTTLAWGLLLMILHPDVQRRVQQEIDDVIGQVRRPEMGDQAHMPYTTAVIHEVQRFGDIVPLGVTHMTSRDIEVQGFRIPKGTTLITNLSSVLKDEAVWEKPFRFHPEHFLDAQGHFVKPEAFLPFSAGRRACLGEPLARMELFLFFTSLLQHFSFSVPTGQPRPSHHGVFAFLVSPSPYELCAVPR

## CC(C)[C@H](NC(=O)c1nn(Cc2ccc(F)cc2)c2ccccc12)C(N)=O [AB-FUBINACA, N-[(1S)-1-(aminocarbonyl)-2-methylpropyl]-1-[(4-fluorophenyl)methyl]-1H-indazole-3-carboxamide]
CYP2D6 [1]
  pKi: 4.68
CYP2B6 [2]
  pKi: 4.82
CYP2C9 [3]
  pIC50: 4.87
CYP1A2
  pIC50: < 4.00
CYP2C19 [4]
  pIC50: 4.71
OATP1B1 [5]
  pIC50: 4.07
CYP2C19 [6]
  pKi: 5.20
CYP2B6 [7]
  pIC50: 4.52
CYP2C8 [8]
  pIC50: 4.35
OATP1B1 [9]
  pKi: 4.03
CYP2C8 [10]
  pKi: 4.70
CYP2C9 [11]
  pKi: 4.88
CYP2D6 [12]
  pIC50: 4.39

— PMC7582776 (Molecules, 2020)
